Experimental findings from PMC11352258, “The Influence of Betulin and Its Derivatives on Selected Colorectal Cancer Cell Lines’ Viability and Their Antioxidant Systems” (Cells, 2024) are described below.

Data set [1] relates to CAT gene expression in RKO cells. Description: CAT mRNA, real-time RT-qPCR, RKO. Format: cell-based. The settings on record: 10 µg/mL, 24 h. How it is done:
(§1) In addition, two colorectal cancer cell lines, RKO and SW1116, were distinguished based on a different response to the EB5 derivative. To perform subsequent analyses, the selected CRC lines were treated with EB5 derivative at a concentration of 10 µg/mL for 24 h. Untreated cells were used as a negative control. Three biological replicates were performed.
Total RNA from treated cells was extracted using TRIzol reagent (Sigma-Aldrich, St Louis, MO, USA) according to the manufacturer’s instructions. The obtained RNA was assessed qualitatively and quantitatively by agarose gel electrophoresis and by spectrophotometric measurement using MaestroNano MN-913 (MaestroGen Inc., Las Vegas, NV, USA), respectively. The obtained extracts provided the starting material for the assessment of genes changes at the mRNA level.
Changes in the expression of SOD1, SOD2, CAT and GPX3 genes involved in antioxidant systems were assessed by real-time RT-qPCR using a LightCycler® 480 System apparatus (Roche, Basel, Switzerland). A commercially purchased GoTaq® 1-Step RT-qPCR System (Promega, Madison, WI, USA) was used, while the primers and reaction conditions were the same as in the previous study performed by Kruszniewska-Rajs et al.. GAPDH was used as the reference gene. The mRNA expression level studied genes were then determined by the 2^−ΔCt relative quantification method. All samples were tested in triplicate. The specificity of the reaction was evaluated based on the melting temperature curve, as well as using electrophoresis of the amplification products in a 2% agarose gel.
In general terms: Real-time PCR tracks product formation cycle by cycle.

A further data set deals with HT29 cells. Put plainly: MTT cytotoxicity assay, HT29. Format: cell-based. The settings on record: Homo sapiens, HT-29; HT29, MTT, 24 h; read-out: IC50 value. An excerpt:
(§2) Control cells were not treated with the compounds.

For the next data set, the system named is Caco2 cells. Put plainly: MTT cytotoxicity assay, Caco2. Format: cell-based. The settings on record: Homo sapiens, Caco-2; Caco2, MTT, 24 h; read-out: IC50 value. On the technique in general: Tetrazolium dyes change colour on reduction, which living cells bring about.
The subject of data set [2] is superoxide dismutase (SOD) activity in RKO cells. Put plainly: SOD activity in RKO cells. Format: cell-based. The settings on record: 10 µg/mL, 24 h. The procedure: as §1
(§3) To examine the antioxidant capacity of the cells as well as lipid peroxidation and to evaluate the activity of antioxidant enzymes, the cells were suspended in lysis buffer (containing 4 mg of […]™ Protease Inhibitor Cocktail and 10 µL of Phosphatase Inhibitor Cocktail 3 in 1 mL of PBS; Sigma-Aldrich, St Louis, MO, USA). Subsequently, the cells were placed in liquid nitrogen for 30 min, followed by storage at −80 °C until further analysis.
(§4) Superoxide dismutase (SOD), glutathione peroxidase (GPx) and catalase (CAT) activities were assessed using a commercially purchased Cayman Chemicals Superoxide Dismutase Assay Kit, a Cayman Chemicals Glutathione Peroxidase Assay Kit and a Catalase Assay Kit (Cayman Chemicals, Ann Arbor, MI, USA), respectively, according to the manufacturer’s recommendations and based on a previous study. […] The level of change in absorbance was measured spectrophotometrically at the appropriate wavelength for the assay, i.e., for SOD in the range 440–460 nm, for GPx at 340 nm and for CAT at 540 nm.

The subject of data set [3] is RKO cells. Put plainly: MTT cytotoxicity assay, RKO. The settings on record: Homo sapiens, 24 h. How it is done: (§5) Six colorectal cancer cell lines, RKO, HT29, DLD-1, HCT116, Caco2 and SW1116 (CRL-2577, HTB-38, CCL-221, CCL-247, HTB-37, CCL-233; ATCC, Manassas, VA, USA, respectively, for CRC lines), and one normal cell line, CCD-841CoN (CRL-1790, ATCC, USA), were routinely cultured at 37 °C in a 5% CO2 incubator (Direct Heat CO2; Thermo Scientific, Waltham, MA, USA) in cell line-appropriate culture medium according to the manufacturer’s recommendations. Eagle’s minimum essential medium (EMEM) was used to culture RKO, Caco2 and CCD-841CoN lines, while McCoy’s 5A medium was used for HT29 and HCT116 lines. DLD-1 cells were grown in RPMI-1640 medium, whereas SW1116 cells were maintained in Leibovitz’s L-15 medium. All culture media were supplemented with 10% fetal bovine serum (EuroClone, Milan, Italy), and gentamycin at the concentration […] (BioWhittaker, Lonza, Basel, Switzerland) was also applied to prevent culture contamination.
(§6) For this purpose, cells were exposed to the test compound for 24 h at concentrations of 0.1, 1, 10, 20, 50 and 100 μg/mL. Control cells were not treated with the compounds. MTT (0.25 mg/mL) was then added to the cultures and incubated for 3 h at 37 °C. After a time, the cells were washed with phosphate buffered saline (PBS), and next, formazan dye was dissolved in 100 μL of dimethyl sulfoxide (Sigma-Aldrich, St Louis, MO, USA). Absorbance was measured at 540 nm using a Wallac 1420 VICTOR microplate reader (PerkinElmer, Waltham, MA, USA).

Data set [4] deals with RKO cells. Description: Lipid peroxidation, MDA assay, RKO. The settings on record: 10 µg/mL, 24 h. Format: cell-based. The procedure: (§7) In addition, two colorectal cancer cell lines, RKO and SW1116, were distinguished based on a different response to the EB5 derivative. […] Untreated cells were used as a negative control. Three biological replicates were performed. To examine the antioxidant capacity of the cells as well as lipid peroxidation and to evaluate the activity of antioxidant enzymes, the cells were suspended in lysis buffer (containing 4 mg of […]™ Protease Inhibitor Cocktail and 10 µL of Phosphatase Inhibitor Cocktail 3 in 1 mL of PBS; Sigma-Aldrich, St Louis, MO, USA). Subsequently, the cells were placed in liquid nitrogen for 30 min, followed by storage at −80 °C until further analysis. To assess the level of lipid peroxidation, the Malondialdehyde Assay Kit (Aoxre BioSciences, Burlingame, CA, USA) was used, according to the manufacturer’s recommendations.

For data set [5], the system named is colorectal cancer cell lines RKO, HT29, DLD-1, HCT116, Caco2 and SW1116. Put plainly: MTT cytotoxicity assay, statements over all tested cell lines. The settings on record: MTT, 24 h. The procedure:
as §5, §6

Data set [6] has as its system SW1116 cells. Description: MTT cytotoxicity assay, SW1116. The settings on record: Homo sapiens, SW 1116, 24 h. How it is done: as §5, §6
The subject of data set [7] is catalase (CAT) activity in SW1116 cells. Put plainly: CAT activity in SW1116 cells. Format: cell-based. The settings on record: SW1116, 10 µg/mL, 24 h. The procedure:
as §1, §3
Superoxide dismutase (SOD), glutathione peroxidase (GPx) and catalase (CAT) activities were assessed using a commercially purchased Cayman Chemicals Superoxide Dismutase Assay Kit, a Cayman Chemicals Glutathione Peroxidase Assay Kit and a Catalase Assay Kit (Cayman Chemicals, Ann Arbor, MI, USA), respectively, according to the manufacturer’s recommendations and based on a previous study. The cell supernatant from previously prepared cell lysates of the tested lines provided material for further analyses. The level of change in absorbance was measured spectrophotometrically at the appropriate wavelength for the assay, i.e., for SOD in the range 440–460 nm, for GPx at 340 nm and for CAT at 540 nm.

Data set [8] deals with glutathione peroxidase (GPx) activity in RKO cells. Description: GPx activity in RKO cells. The settings on record: 10 µg/mL, 24 h. Format: cell-based. How it is done: as §1, §3, §4
The next data set deals with HCT116 cells. Put plainly: MTT cytotoxicity assay, HCT116. In kind it is cell-based. The settings on record: Homo sapiens; HCT 116, MTT, 24 h; read-out: IC50 value.
Source text: as §2

Data set [9] deals with SW1116 cells. Description: Lipid peroxidation, MDA assay, SW1116. Format: cell-based. The settings on record: SW1116, 10 µg/mL, 24 h. The procedure:
as §7

A further data set relates to DLD-1 cells. Put plainly: MTT cytotoxicity assay, DLD-1. Format: cell-based. The settings on record: Homo sapiens; DLD-1, MTT, 24 h; read-out: IC50 value.
Source text: as §2

Where “and” joins values, the source holds several entries; their conditions need not be identical. Equal values may be shown once.

By IC50 is commonly meant the concentration needed to halve the response being measured. The viability is the share of living cells, or the viability signal relative to a control. A higher viability goes with less harm to the cells. Regarding `O=c1[nH]cc(F)c(=O)[nH]1` [5FU, 5-fluorouracil], the “CAT gene expression vs. untreated cells” value in data set [1] is given as “significant decrease in expression”. For the same molecule, the concentration for half-maximal inhibition (IC50) in the data set with HT29 cells was > 100 µg/mL and > 769 µM; with Caco2 cells it was > 100 µg/mL and > 769 µM; in the data set with RKO cells [3] (read-out: IC50 value) it was > 100 µg/mL and > 769 µM; in the data set with SW1116 cells [6] (read-out: IC50 value), > 100 µg/mL and > 769 µM; in the data set on HCT116 cells, > 100 µg/mL and > 769 µM; in the data set with DLD-1 cells it was > 100 µg/mL and > 769 µM. In addition, the “SOD activity compared to cells treated with betulin” value in [2] was “modest increase”. The viability at 10 µg/mL in the data set with RKO cells [3] and with SW1116 cells [6] was ≥ 50% throughout. Further, the “increase in MDA levels compared to the control cells” value in the data set on RKO cells [4] is recorded as “about 62.2%”. Moreover, the “cytotoxic effect compared with the other tested compounds” value in data set [5] is recorded as “weaker”. Further, the “catalase activity compared to cells treated with EB5” value in [7] is “higher catalase activity”. Further, in [7], the “catalase activity compared to cells treated with betulin” value was “higher catalase activity”. The “catalase activity compared to the control” value in [7] is “higher catalase activity”. Besides, the “GPx activity vs. cells treated with EB5” value in data set [8] is recorded as “slight increase”. For the same molecule, the “MDA level compared to the control” value with SW1116 cells [9] is given as “did not cause changes”.
